Results as given in ChEMBL document CHEMBL5230136, “A review: Biologically active 3,4-heterocycle-fused coumarins” (Eur J Med Chem, 2021).

How the values were obtained:
[1] = system: Proteus mirabilis; assay: Antibacterial activity against Proteus mirabilis assessed as zone of inhibition; format: functional
[2] = system: Bacillus cereus; assay: Antibacterial activity against Bacillus cereus assessed as zone of inhibition; format: functional
[3] = system: Staphylococcus aureus; assay: Antibacterial activity against Staphylococcus aureus assessed as zone of inhibition; format: functional
[4] = system: Serratia marcescens; assay: Antibacterial activity against Serratia marcescens assessed as zone of inhibition; format: functional
[5] = system: Penicillium chrysogenum; assay: Antifungal activity against Penicillium chrysogenum assessed as zone of inhibition; format: functional
[6] = system: Aspergillus ochraceus; assay: Antifungal activity against Aspergillus ochraceus assessed as zone of inhibition; format: functional
[7] = system: Fusarium oxysporum; assay: Antifungal activity against Fusarium oxysporum assessed as zone of inhibition at 20 mg/ml; format: functional; conditions: read-out: IZ
[8] = system: Aspergillus flavus; assay: Antifungal activity against Aspergillus flavus assessed as zone of inhibition at 20 mg/ml; format: functional; conditions: read-out: IZ
[9] = system: Escherichia coli; assay: Antibacterial activity against Escherichia coli assessed as zone of inhibition at 20 mg/ml; format: functional; conditions: read-out: IZ
[10] = system: Scopulariopsis; assay: Antifungal activity against Scopulariopsis assessed as zone of inhibition at 20 mg/ml; format: functional; conditions: read-out: IZ
[11] = system: Trichophyton rubrum; assay: Antifungal activity against Trichophyton rubrum assessed as zone of inhibition at 20 mg/ml; format: functional; conditions: read-out: IZ
[12] = system: Staphylococcus aureus; assay: Antibacterial activity against Staphylococcus aureus assessed as zone of inhibition at 20 mg/ml; format: functional; conditions: read-out: IZ
[13] = system: Micrococcus luteus; assay: Antibacterial activity against Micrococcus luteus assessed as zone of inhibition at 20 mg/ml; format: functional; conditions: read-out: IZ
[14] = system: Serratia marcescens; assay: Antibacterial activity against Serratia marcescens assessed as zone of inhibition at 20 mg/ml; format: functional; conditions: read-out: IZ
[15] = system: Bacillus cereus; assay: Antibacterial activity against Bacillus cereus assessed as zone of inhibition at 20 mg/ml; format: functional; conditions: read-out: IZ
[16] = system: Geotrichum candidum; assay: Antifungal activity against Geotrichum candidum assessed as zone of inhibition at 20 mg/ml; format: functional; conditions: read-out: IZ
[17] = system: Candida albicans; assay: Antifungal activity against Candida albicans assessed as zone of inhibition at 20 mg/ml; format: functional; conditions: read-out: IZ
[18] = system: Pseudomonas aeruginosa; assay: Antibacterial activity against Pseudomonas aeruginosa assessed as zone of inhibition at 20 mg/ml; format: functional; conditions: read-out: IZ
[19] = system: K562; assay: cells; conditions: Homo sapiens
Description: Cytotoxicity against human K562 cells at 50 uM by MTT reduction assay

[20] = system: LS180; assay: cells; conditions: Homo sapiens
Description: Cytotoxicity against human LS180 cells at 50 uM by MTT reduction assay

[21] = system: HeLa; assay: cells; conditions: Homo sapiens
Description: Cytotoxicity against human HeLa cells at 50 uM by MTT reduction assay

[22] = system: MCF7; assay: Cytotoxicity against human MCF7 cells […] by MTT reduction assay; format: functional, cell-based

CC1c2c(c3ccccc3oc2=O)Oc2ncn(C)c(=N)c21 (stereo not given)
inhibition zone (IZ) [1]: 19 mm
inhibition zone (IZ) [2]: 17 mm
inhibition zone (IZ) [3]: 18 mm
inhibition zone (IZ) [4]: 19 mm
inhibition zone (IZ) [5]: 15 mm
inhibition zone (IZ) [6]: 19 mm

CCOC(=O)c1sc2c(c1NC(=O)CCl)c(=O)oc1ccccc12
zone of inhibition at 20000 µg/mL [7]: 0 mm
zone of inhibition at 20000 µg/mL [8]: 0 mm
zone of inhibition at 20000 µg/mL [9]: 0 mm
zone of inhibition at 20000 µg/mL [10]: 0 mm
zone of inhibition at 20000 µg/mL [11]: 0 mm
zone of inhibition at 20000 µg/mL [12]: 8 mm
zone of inhibition at 20000 µg/mL [13]: 0 mm
zone of inhibition at 20000 µg/mL [14]: 0 mm
zone of inhibition at 20000 µg/mL [15]: 0 mm
zone of inhibition at 20000 µg/mL [16]: 0 mm
zone of inhibition at 20000 µg/mL [17]: 10 mm
zone of inhibition at 20000 µg/mL [18]: 0 mm

O=C1CCCc2nc3c(c(-c4ccc(Br)cc4)c21)c(=O)oc1ccccc13
IC50 [19]: 47.5 µM
IC50 [20]: > 100 µM
IC50 [21]: 47.3 µM
IC50 [22]: 46.2 µM

CC1(C)S[C@@H]2[C@H](NC(=O)[C@H](N)c3ccccc3)C(=O)N2[C@H]1C(=O)O [AMPICILLIN]
inhibition zone (IZ) [1]: 27 mm
inhibition zone (IZ) [2]: 25 mm
inhibition zone (IZ) [3]: 26 mm
inhibition zone (IZ) [4]: 26 mm

CC1C2=C(N=CNC2N)Oc2c1c(=O)oc1ccccc21 (stereo not given)
inhibition zone (IZ) [1]: 19 mm
inhibition zone (IZ) [2]: 22 mm
inhibition zone (IZ) [3]: 21 mm
inhibition zone (IZ) [4]: 20 mm
inhibition zone (IZ) [5]: 12 mm
inhibition zone (IZ) [6]: 14 mm

Cc1ccccc1-c1c2c(nc3c1c(=O)oc1ccccc13)CCCC2=O
IC50 [19]: > 100 µM
IC50 [20]: > 100 µM
IC50 [21]: > 100 µM
IC50 [22]: > 100 µM

COc1ccccc1-c1c2c(nc3c1c(=O)oc1ccccc13)CCCC2=O
IC50 [19]: > 100 µM
IC50 [20]: > 100 µM
IC50 [21]: > 100 µM
IC50 [22]: > 100 µM

O=C1CCCc2nc3c(c(-c4cccc(Cl)c4)c21)c(=O)oc1ccccc13
IC50 [19]: 50.7 µM
IC50 [20]: > 100 µM
IC50 [21]: > 100 µM
IC50 [22]: 71.7 µM

Cc1ccc(-c2c3c(nc4c2c(=O)oc2ccccc24)CCCC3=O)cc1
IC50 [19]: 56.2 µM
IC50 [20]: > 100 µM
IC50 [21]: 43.6 µM
IC50 [22]: 66.7 µM

O=C1CCCc2nc3c(c(-c4ccc(Cl)cc4)c21)c(=O)oc1ccccc13
IC50 [19]: 37.5 µM
IC50 [20]: > 100 µM
IC50 [21]: 37.7 µM
IC50 [22]: 41.8 µM

COc1cccc(-c2c3c(nc4c2c(=O)oc2ccccc24)CCCC3=O)c1
IC50 [19]: > 100 µM
IC50 [20]: > 100 µM
IC50 [21]: > 100 µM
IC50 [22]: > 100 µM

CCOC(=O)c1sc2c(c1NC(=O)CNc1ccc(C)cc1)c(=O)oc1ccccc12
zone of inhibition at 20000 µg/mL [7]: 0 mm
zone of inhibition at 20000 µg/mL [8]: 0 mm
zone of inhibition at 20000 µg/mL [9]: 0 mm
zone of inhibition at 20000 µg/mL [10]: 0 mm
zone of inhibition at 20000 µg/mL [11]: 0 mm
zone of inhibition at 20000 µg/mL [12]: 0 mm
zone of inhibition at 20000 µg/mL [13]: 0 mm
zone of inhibition at 20000 µg/mL [14]: 0 mm
zone of inhibition at 20000 µg/mL [15]: 0 mm
zone of inhibition at 20000 µg/mL [16]: 8 mm
zone of inhibition at 20000 µg/mL [17]: 13 mm
zone of inhibition at 20000 µg/mL [18]: 0 mm

CCOC(=O)c1sc2c(c1NC(=O)CNc1ccc(S(=O)(=O)NN=N)cc1)c(=O)oc1ccccc12
zone of inhibition at 20000 µg/mL [7]: 0 mm
zone of inhibition at 20000 µg/mL [8]: 0 mm
zone of inhibition at 20000 µg/mL [9]: 9 mm
zone of inhibition at 20000 µg/mL [10]: 0 mm
zone of inhibition at 20000 µg/mL [11]: 0 mm
zone of inhibition at 20000 µg/mL [12]: 10 mm
zone of inhibition at 20000 µg/mL [13]: 0 mm
zone of inhibition at 20000 µg/mL [14]: 0 mm
zone of inhibition at 20000 µg/mL [15]: 0 mm
zone of inhibition at 20000 µg/mL [16]: 0 mm
zone of inhibition at 20000 µg/mL [17]: 13 mm
zone of inhibition at 20000 µg/mL [18]: 9 mm
